From article PMC9822400, “The Lipophilic Purine Nucleoside—Tdp1 Inhibitor—Enhances DNA Damage Induced by Topotecan In Vitro and Potentiates the Antitumor Effect of Topotecan In Vivo” (Molecules, 2022)
Entries after “also recorded” stand apart in the source; their conditions may differ.

Legend:
[1] = target: T1, purified recombinant human Tdp1 (Homo sapiens, UniProt Q9NUW8); assay: Real-time detection of Tdp1 activity (removal of BHQ1 from a 5′-FAM 16-nt oligonucleotide, fluorescence); assay type: biochemical; conditions: for IC50: 1.5 nM Tdp1, 50 nM oligonucleotide, 25 °C, three independent experiments
T1 construct: made in house
T1 sequence (Q9NUW8 whole entry): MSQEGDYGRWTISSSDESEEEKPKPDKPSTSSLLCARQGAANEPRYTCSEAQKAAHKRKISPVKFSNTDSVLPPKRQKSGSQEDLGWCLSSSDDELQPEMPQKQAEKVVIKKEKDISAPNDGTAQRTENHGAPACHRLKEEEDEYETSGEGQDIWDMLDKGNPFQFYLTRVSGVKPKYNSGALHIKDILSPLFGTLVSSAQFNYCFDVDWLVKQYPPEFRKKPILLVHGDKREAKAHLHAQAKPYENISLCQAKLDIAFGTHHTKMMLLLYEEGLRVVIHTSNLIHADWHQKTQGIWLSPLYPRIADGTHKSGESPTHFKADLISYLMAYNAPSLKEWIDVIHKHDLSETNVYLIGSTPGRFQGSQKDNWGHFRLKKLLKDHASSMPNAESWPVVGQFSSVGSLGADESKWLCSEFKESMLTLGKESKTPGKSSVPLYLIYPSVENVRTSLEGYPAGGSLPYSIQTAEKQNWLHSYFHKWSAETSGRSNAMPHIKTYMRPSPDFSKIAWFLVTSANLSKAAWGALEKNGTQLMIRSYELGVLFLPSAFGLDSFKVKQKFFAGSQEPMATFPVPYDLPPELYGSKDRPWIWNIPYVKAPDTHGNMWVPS
Description: In this work, four natural nucleosides (1-4) and […] aromatic lipophilic derivatives of purine nucleosides (5a-f, 6a-d) were tested for Tdp1 activity. The used test system was based on the enzyme’s ability to remove Black Hole Quencher 1 (BHQ1) from the 3′ end of a 5′ FAM 16-nt oligonucleotide. As a result, an increase in FAM fluorescence was detected and the obtained kinetic curves were used to calculate the IC50 parameter (the concentration of the inhibitor at which the enzyme activity is reduced by half). We have found potent Tdp1 inhibitors with IC50 in the range from 0.3 to 7 μM (Table 1).
Purified human recombinant Tdp1 was prepared as described earlier. Real-time detection of Tdp1 activity was reported in our previous work. The approach consists of a fluorescence intensity measurement of the reaction of quencher removal from the fluorophore-quencher coupled DNA oligonucleotide catalyzed by Tdp1 in the presence of the inhibitor (the control samples contained 1% DMSO). The biosensor was single-stranded oligonucleotide (5′-[FAM] AAC GTC AGGGTC TTC C [BHQ]-3′) containing fluorophore at the 5′ end (5,6-FAM) and a Black Hole Quencher 1 (BHQ) at the 3′ end, and was synthesized in the Laboratory of nucleic acid chemistry at the Institute of Chemical Biology and Fundamental Medicine SB RAS, Novosibirsk, Russia. The reactions were incubated at a constant temperature 25 °C in a POLARstar OPTIMA fluorimeter, BMG LABTECH, GmbH, to measure fluorescence every 55 s (Ex485/Em520 nm) during the linear phase (here, the data are from 0 to 8 min). […] The IC50 values were determined using a six-point concentration response curve in three independent experiments and calculated using MARS Data Analysis 2.0 (BMG LABTECH).

[2] = target: T2, human recombinant PARP2 (Homo sapiens, UniProt Q9UGN5); assay: PARP2 activity by inclusion of α-[32P]-NAD+ in poly(ADP-ribose); assay type: biochemical; conditions: in the presence of 1 mM compound; read-out: Residual activity of PARP2
T2 construct: made in house
T2 sequence (Q9UGN5 whole entry): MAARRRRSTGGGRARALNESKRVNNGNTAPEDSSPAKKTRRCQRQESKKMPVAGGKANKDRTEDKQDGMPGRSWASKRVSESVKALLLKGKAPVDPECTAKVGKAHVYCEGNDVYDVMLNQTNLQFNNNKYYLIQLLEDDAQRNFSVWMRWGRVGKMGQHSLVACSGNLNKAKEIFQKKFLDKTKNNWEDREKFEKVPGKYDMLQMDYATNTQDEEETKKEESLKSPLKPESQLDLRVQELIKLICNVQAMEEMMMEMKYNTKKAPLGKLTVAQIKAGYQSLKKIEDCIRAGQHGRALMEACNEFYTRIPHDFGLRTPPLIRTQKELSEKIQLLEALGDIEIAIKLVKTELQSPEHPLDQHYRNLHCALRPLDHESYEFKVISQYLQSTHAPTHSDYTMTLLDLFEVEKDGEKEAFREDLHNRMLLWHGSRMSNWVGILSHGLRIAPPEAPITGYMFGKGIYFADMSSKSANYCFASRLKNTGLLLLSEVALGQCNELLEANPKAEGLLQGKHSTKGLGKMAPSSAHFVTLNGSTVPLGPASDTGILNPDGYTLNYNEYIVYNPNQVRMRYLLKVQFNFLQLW
Description: (§1) Since it has previously been shown that nucleoside derivatives can inhibit enzymes of the PARP family, we also checked whether the studied compounds were able to inhibit the enzymes PARP1 and PARP2. […] Thus, when using our compounds, one cannot expect side effects from PARP1/2.
(§2) Purified human recombinant PARP1/2 [65] and [^32P] NAD^+ [27] were prepared as described earlier. The activity of PARP1/2 was evaluated by the rate of incorporation of the radioactive label into the acid-insoluble reaction product—PAR as described previously.

[3] = tested on: HeLa cells; assay: Effect of compounds on topotecan cytotoxicity (EZ4U test); assay type: cell-based, human; conditions: compound 10 μM in combination with Tpc
From the text: (§3) Tdp1 inhibitors are intended to be used in therapeutic cocktails to sensitize tumors to the action of anticancer Top1 poisons. […] To assess the toxicity of the compounds, their effect on the survival of the HeLa cell line (human cervical cancer) was studied using the colorimetric test of metabolic activity of cells EZ4U, which reflects the survival of cells in the presence of the studied compounds. The EZ4U assay is based on the ability of living cells to reduce the colorless tetrazolium salt XTT [sodium 3,3′-{1-(phenylamino)-carbonyl-3,4-tetrazolium) -bis(4-methoxy-6-nitro)-benzene sulfonic acid hydrate] to an orange water-soluble formazan product. This method was used to investigate the intrinsic cytotoxicity of promising inhibitors discovered in the course of this work, as well as the toxicity of their combination with Tpc.
As already mentioned, we expected to increase the efficacy and/or reduce the dosage of Tpc with Tdp1 inhibitors. To do this, we studied the effect of nucleoside derivatives on Tpc cytotoxicity. […] We attribute this to the probable presence of protein targets other than Tdp1 in the cell.
(§4) Cytotoxicity of the compounds was examined on human cell lines HeLa using an EZ4U colorimetric test (Biomedica, Vienna, Austria). The HeLa cell line was obtained from the Russian Cell Culture Collection (RCCC) Institute of Cytology RAS, St. Petersburg, Russia. The cells were grown in DMEM/F12 medium (Gibco, Thermo Fisher Scientific, Waltham, MA, USA), with 1x GlutaMAX (Gibco, Thermo Fisher Scientific, Waltham, MA, USA), 50 IU/mL penicillin, 50 μg/mL streptomycin (MP Biomedicals), and in the presence of 10% fetal bovine serum (Biolot, Saint-Petersburg, Russia) in a 5% CO2 atmosphere. Since lipophilic nucleosides are soluble in DMSO, cells were grown in the presence of 1% DMSO in the control wells. After the formation of a 30–50% monolayer, the tested compounds were added to the medium, and the cell culture was monitored for 3 days. The values were normalized to their own control in each case. At least three independent experiments were carried out. The 50% cytotoxic concentration (CC50) was defined as the compound concentration that reduced the cell viability by 50% when compared to the untreated controls. The CC50 value was determined using OriginPro 8.6.0 software (OriginLab, Northampton, MA, USA). The measurements were carried out in three independent experiments.

[4] = Cell culture cytotoxicity assay (EZ4U colorimetric test); assay type: cell-based; conditions: human, HeLa cells
From the text: as §3, §4

[5] = target: T3, human recombinant PARP1 (Homo sapiens, UniProt P09874); assay: PARP1 activity by inclusion of α-[32P]-NAD+ in poly(ADP-ribose); assay type: biochemical; conditions: in the presence of 1 mM compound; read-out: Residual activity of PARP1
T3 construct: made in house
T3 sequence (P09874 whole entry): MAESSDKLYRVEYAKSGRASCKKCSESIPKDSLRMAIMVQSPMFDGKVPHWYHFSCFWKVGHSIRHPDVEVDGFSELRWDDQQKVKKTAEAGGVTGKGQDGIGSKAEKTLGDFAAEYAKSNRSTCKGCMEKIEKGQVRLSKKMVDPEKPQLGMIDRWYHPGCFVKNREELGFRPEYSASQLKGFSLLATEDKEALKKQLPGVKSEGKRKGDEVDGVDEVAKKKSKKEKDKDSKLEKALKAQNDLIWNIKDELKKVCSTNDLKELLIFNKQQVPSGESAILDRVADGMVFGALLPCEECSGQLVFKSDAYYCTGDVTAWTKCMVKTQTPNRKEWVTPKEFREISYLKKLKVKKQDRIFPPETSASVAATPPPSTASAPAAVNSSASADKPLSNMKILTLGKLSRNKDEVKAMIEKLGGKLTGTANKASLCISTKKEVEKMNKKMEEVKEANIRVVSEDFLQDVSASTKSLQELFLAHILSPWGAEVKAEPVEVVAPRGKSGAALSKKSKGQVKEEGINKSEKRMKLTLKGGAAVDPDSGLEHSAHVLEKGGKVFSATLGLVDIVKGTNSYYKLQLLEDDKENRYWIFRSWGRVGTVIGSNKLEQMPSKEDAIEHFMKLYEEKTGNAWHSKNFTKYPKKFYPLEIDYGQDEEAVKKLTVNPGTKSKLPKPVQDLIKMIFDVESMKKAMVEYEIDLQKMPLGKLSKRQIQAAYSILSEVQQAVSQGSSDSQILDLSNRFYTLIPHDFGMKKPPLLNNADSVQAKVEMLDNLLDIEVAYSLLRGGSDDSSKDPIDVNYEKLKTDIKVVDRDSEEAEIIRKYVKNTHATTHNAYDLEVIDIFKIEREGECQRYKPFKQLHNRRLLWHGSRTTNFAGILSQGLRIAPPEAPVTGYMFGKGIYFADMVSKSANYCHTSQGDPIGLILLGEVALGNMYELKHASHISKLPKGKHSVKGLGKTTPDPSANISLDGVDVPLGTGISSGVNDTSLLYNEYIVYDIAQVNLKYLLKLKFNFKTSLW
Description: as §1, §2

[6] = tested on: HeLa cells; assay: Alkaline Comet assay, accumulation of DNA damage; assay type: cell-based; conditions: for DNA in tail: Topotecan 10 μM alone (0 μM compound), 1 h
From the text: We studied the effect of Tdp1 inhibitors 5f and 6d on the accumulation of DNA damage by single-cell gel electrophoresis (Comet assay). […] This method has proven to be a simple, fast, and a quite sensitive way to detect DNA damage at the level of a single cell, allowing one to analyze almost any eukaryotic cell culture. Several analysis options allow one to visualize various types of DNA damage: single- and double-stranded breaks and alkaline-labile sites. This allows this method to be widely used in fundamental studies of DNA damage and repair and in testing the genotoxicity of new chemical and pharmaceutical drugs in vitro and in vivo [51, 52]. To study potential drugs, the alkaline version of the method (pH > 13) proposed by Singh and co-authors is widely used. This method allows the detection of all types of DNA damage with high sensitivity. In cells with a large amount of DNA damage, the structural organization and integrity of DNA are disrupted, which leads to its relaxation and/or fragmentation. As a result, cellular DNA in an electric field gives the observed objects the appearance of a “comet”.
Before studying the effect of Tdp1 inhibitors on the accumulation of DNA damage, it was necessary to find out how long the generation of DNA damage by Tpc and their repair take place in HeLa cells. To do this, cell culture was treated with Tpc at 1, 10, and 100 μM concentrations for 30 min, 1, 2, and 3 h and the level of damage to individual cells was monitored by Comet assay. It was shown that Tpc caused the greatest amount of damage after 30 minutes’ treatment. After this time, the repair systems began to correct these lesions and as a result, after 3 h most of them have been eliminated (Figure S9). […] The level of DNA damage at this point was enough to be detected, the data were reproducible, and can be evaluated by the Comet assay. The effect could be enhanced by the tested compounds without leading to cell death. It was important for us to see this enhancement in the presence of our compounds.
HeLa cell culture was grown in a 24-well plate to a concentration of 0.05 million/mL, then treated with the tested compounds and incubated for 1 h. To obtain a cell suspension, the cells were treated with trypsin (30 µL in each well for 5 min at 37 °C), and then 200 µL of PBS + 10% FBS were added to each well.
The resulting cell suspension (50 µL) was mixed with 250 µL of a 1% solution of molten low melting agarose (CertifiedTM LMAgarose; BIO-RAD), 250 µL of this mixture was transferred to the slides pre-coated with a 1% normal melting agarose (Agarose; Helicon), and left for several minutes at 4 °C to solidify. The resulting slides were incubated in a lysing solution (2.5 M NaCl, 100 mM EDTA, 10 mM Tris base, 1% Triton, 5% DMSO, pH 10.0) for an hour at 4 °C. Then the slides were immersed in an electrophoretic buffer (300 mM NaOH, 1 mM EDTA, pH > 13) for 45 min at 4 °C. Electrophoresis was performed at 20 V, 450 mA for 10 min while cooling on ice. After that, the slides were immersed 2 times for 5 min in 0.4 M Tris-HCl pH 7.5 solution for neutralization, washed twice with cold water, and stained with SYBR Green I (excitation maximum at 497 nm, emission maximum at 520 nm; Thermo Fisher Scientific KK).
The images were obtained using a CELENA © S digital microscope (Logos Biosystems, Inc., Annandale, VA, USA) and analyzed with Comet analysis software (Trevigen, Inc., Gaithersburg, MD, USA. In all experiments, 2 slides were evaluated for each sample by counting at least 200 cells on the glass. As a parameter for measuring the level of DNA damage, the median value of the percentage of DNA in the tail was chosen (% Tail DNA = 100 × the intensity of DNA fluorescence in the tail of the comet/the intensity of fluorescence of the total DNA of the comet).

| Compound | IC50 [1] [µM] | remaining activity at 1000 µM [2] [%] | Enhancement of Tpc Cytotoxicity by 10 μM Compounds [3] [Times] | CC50 at 3 days [4] [µM] | remaining activity at 1000 µM [5] [%] | DNA in tail ([6]; series of compound 5f) [%] | DNA in tail ([6]; series of compound 6d) [%] | Time after which most DNA lesions have been eliminated ([6]; Tpc at 1, 10 and 100 μM) [h] | Treatment time with the greatest amount of DNA damage ([6]; Tpc at 1, 10 and 100 μM for 30 min, 1, 2 and 3 h) [min] | Tdp1 inhibition, in words [1] |
| --- | --- | --- | --- | --- | --- | --- | --- | --- | --- | --- |
| OC[C@H]1O[C@@H](n2cnc3c(NCc4c5ccccc5cc5ccccc45)ncnc32)[C@H](O)[C@@H]1O [5c] | 22 ± 3 | 104 ± 16 | 2.2 | 58 ± 2 | 92 ± 14 |  |  |  |  |  |
| Nc1nc2c(ncn2[C@H]2C[C@H](O)[C@@H](CO)O2)c(=O)[nH]1 [compound 2, reference compound] | > 50 | 87 ± 18 |  |  | 102 ± 11 |  |  |  |  |  |
| CC[C@@]1(O)C(=O)OCc2c1cc1n(c2=O)Cc2cc3c(CN(C)C)c(O)ccc3nc2-1 [Tpc, topotecan] |  |  |  |  |  | 35±5 | 39±1 | 3 | 30 |  |
| Nc1nc2c(ncn2[C@@H]2O[C@H](CO)[C@@H](O)[C@H]2O)c(=O)[nH]1 [compound 1, reference compound] | > 50 | 91 ± 5 |  |  | 86 ± 5 |  |  |  |  |  |
| Nc1ncnc2c1ncn2[C@@H]1O[C@H](CO)[C@@H](O)[C@H]1O [compound 3, reference compound] | > 50 | 95 ± 9 |  |  | 94 ± 9 |  |  |  |  |  |
| O=C(OC[C@H]1O[C@@H](n2cnc3c(O)ncnc32)[C@H](OC(=O)c2ccccc2)[C@@H]1OC(=O)c1ccccc1)c1ccccc1 [6a, 2′,3′,5′-Tri-O-benzoylinosine] | 7 ± 1 | 96 ± 30 | 1.8 | 58 ± 5 | 87 ± 10 |  |  |  |  |  |
| O=C(OC[C@H]1O[C@@H](n2cnc3c(Cl)ncnc32)[C@H](OC(=O)c2ccccc2)[C@@H]1OC(=O)c1ccccc1)c1ccccc1 [compound 6b, 6-Chloro-2′,3′,5′-tri-O-benzoyl-β-D-ribofuranosylpurine riboside] | 2 ± 0.6 | 75 ± 16 | 1.9 | 56 ± 26 | 86 ± 8 |  |  |  |  |  |
| Nc1ncnc2c1ncn2[C@H]1C[C@H](O)[C@@H](CO)O1 [compound 4, reference compound] | > 50 | 79 ± 15 |  |  | 84 ± 12 |  |  |  |  |  |
| OC[C@H]1O[C@@H](n2cnc3c(NC(c4ccccc4)(c4ccccc4)c4ccccc4)ncnc32)[C@H](O)[C@@H]1O [compound 5b] | > 50 | 107 ± 9 | 1.7 | 59.6 ± 0.6 | 99 ± 8 |  |  |  |  | practically did not lead to a decrease in Tdp1 activity |
| OC[C@H]1O[C@@H](n2cnc3c(NCc4ccc(-c5ccccc5)cc4)ncnc32)[C@H](O)[C@@H]1O [5a] | > 50 | 101 ± 24 |  | > 100 | 112 ± 11 |  |  |  |  | practically did not lead to a decrease in Tdp1 activity; also recorded: did not inhibit Tdp1 |
| OC[C@H]1O[C@@H](n2cnc3c(NCc4cc5ccc6cccc7ccc(c4)c5c67)ncnc32)[C@H](O)[C@@H]1O [5d] | > 50 | 100 ± 15 |  | 56 ± 10 | 88 ± 21 |  |  |  |  | practically did not lead to a decrease in Tdp1 activity; also recorded: did not inhibit Tdp1 |
